Source: ChEMBL document CHEMBL4507266, “Data for DCP probe BAY-784” (2021)

Legend:
CYP2D6 = CYP2D6 (Homo sapiens, UniProt P10635); assay: CYP450, 2D6 Eurofins-Panlabs enzyme assay; settings: compound concentration 10 uM
[1] = target: Histamine H1 receptor (Homo sapiens) (UniProt P35367); settings: Compound concentration 10.0 uM
[2] = target: Histamine H2 receptor (Homo sapiens) (UniProt P25021); settings: Compound concentration 10.0 uM
[3] = target: Epidermal growth factor receptor (Homo sapiens) (UniProt P00533); assay: Inhibition of Protein Tyrosine Kinase, EGF Receptor at 10 µM in the Eurofins-Panlabs enzyme assay (Eurofins_assay_170020); parameters: substrate with concentration; settings: Compound concentration […]
[4] = target: L-type calcium channel, dihydropyridine site (Cav1.2 alpha-1C) (Homo sapiens, UniProt Q13936); assay: Inhibition of Calcium Channel L-Type, Dihydropyridine at 10 µM in the Eurofins-Panlabs radioligand binding assay (Eurofins_assay_214600); parameters: ligand concentration 0.1 nM, non-specific ligand with concentration 1 µM Nitrendipine, incubation time 90 min, incubation temperature 25 °C; settings: Wistar, rat, rat cerebral cortex preparation, probe [3H] Nitrendipine, 0.1 nM; compound concentration 10 uM; target entry is the homologue from another species
[5] = target: Thromboxane-A synthase (Homo sapiens) (UniProt P24557); assay: Inhibition of Thromboxane Synthase at compound concentration of 10.0 uM in the Eurofins-Panlabs enzyme assay (Eurofins_assay_194020); parameters: substrate with concentration; settings: Compound concentration 10.0 uM
[6] = test system: Progesterone receptor (Bos taurus); assay: Progesterone Eurofins-Panlabs radioligand binding assay; settings: Compound concentration 10.0 uM
[7] = target: Protein phosphatase 3 catalytic subunit alpha (Homo sapiens) (UniProt Q08209); assay: Inhibition of Protein Serine/threonine Phosphatase, PPP3CA (Calcineurin, PP2B) […] in the Eurofins-Panlabs enzyme assay (Eurofins_assay_188020); parameters: substrate with concentration; settings: Compound concentration 10.0 uM
[8] = target: Neutrophil elastase (Homo sapiens) (UniProt P08246); assay: Inhibition of Peptidase, ELA2 (Neutrophil Elastase 2) at 10 µM in the Eurofins-Panlabs enzyme assay (Eurofins_assay_166010); settings: Compound concentration 10.0 uM
D(1A) dopamine receptor = D(1A) dopamine receptor (Homo sapiens, UniProt P21728); settings: Compound concentration 10.0 uM
[9] = target: Substance-P receptor (Homo sapiens) (UniProt P25103); assay: Inhibition of Tachykinin NK1 at 10 µM in the Eurofins-Panlabs radioligand binding assay (Eurofins_assay_255520); parameters: ligand concentration 0.8 nM; settings: Compound concentration 10.0 uM
CYP3A4 = CYP3A4 (Homo sapiens, UniProt P08684); assay: CYP450, 3A4 Eurofins-Panlabs enzyme assay; settings: compound concentration 10 uM
[10] = target: Phosphodiesterase 3 (Homo sapiens) (UniProt Q14432+Q13370); assay: Inhibition of Phosphodiesterase PDE3 at compound concentration of 10.0 uM in the Eurofins-Panlabs enzyme assay (Eurofins_assay_152000); type: protein assay; parameters: substrate with concentration 1.01 uM [3H] cAMP + cAMP, incubation time 20 min, incubation temperature 25 C; settings: Compound concentration 10.0 uM
[11] = target: Cholecystokinin receptor type A (Homo sapiens) (UniProt P32238); assay: Inhibition of Cholecystokinin CCK1 (CCKA) at 10 µM in the Eurofins-Panlabs radioligand binding assay (Eurofins_assay_218020); settings: Compound concentration 10.0 uM
[12] = target: Neuropeptide Y receptor type 2 (Homo sapiens) (UniProt P49146); assay: Inhibition of Neuropeptide Y Y2 at 10 µM in the Eurofins-Panlabs radioligand binding assay (Eurofins_assay_257110); settings: Compound concentration 10.0 uM
[13] = target: D(2) dopamine receptor (Homo sapiens) (UniProt P14416); settings: Compound concentration 10.0 uM
[14] = target: T1, Muscarinic acetylcholine receptor M1 (Homo sapiens) (UniProt P11229); settings: Compound concentration 10.0 uM
T1 sequence (whole entry): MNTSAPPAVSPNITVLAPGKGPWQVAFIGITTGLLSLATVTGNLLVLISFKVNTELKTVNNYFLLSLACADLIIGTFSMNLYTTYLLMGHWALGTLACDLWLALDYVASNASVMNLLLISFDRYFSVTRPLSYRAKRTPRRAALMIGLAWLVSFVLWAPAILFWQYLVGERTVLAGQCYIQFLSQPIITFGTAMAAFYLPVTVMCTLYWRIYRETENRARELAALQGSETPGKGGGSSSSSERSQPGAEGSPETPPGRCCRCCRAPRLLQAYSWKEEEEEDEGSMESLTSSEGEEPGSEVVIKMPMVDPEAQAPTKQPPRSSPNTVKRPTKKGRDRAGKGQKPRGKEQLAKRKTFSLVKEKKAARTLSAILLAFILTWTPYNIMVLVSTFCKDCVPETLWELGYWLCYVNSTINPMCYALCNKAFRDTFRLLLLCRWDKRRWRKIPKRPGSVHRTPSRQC

[15] = target: C-C chemokine receptor type 2 (Homo sapiens) (UniProt P41597); assay: Inhibition of Chemokine CCR2B at 10 µM in the Eurofins-Panlabs radioligand binding assay (Eurofins_assay_217550); settings: Compound concentration 10.0 uM
[16] = target: Neutrophil elastase (Homo sapiens) (UniProt P08246); assay: Peptidase, ELA2 (Neutrophil Elastase 2) Eurofins-Panlabs enzyme assay; settings: Compound concentration 30.0 uM
[17] = target: L-type calcium channel, benzothiazepine site (Cav1.2 alpha-1C) (Homo sapiens, UniProt Q13936); assay: Inhibition of Calcium Channel L-Type, Benzothiazepine at 10 µM in the Eurofins-Panlabs radioligand binding assay (Eurofins_assay_214510); parameters: ligand concentration 2 nM, non-specific ligand with concentration 10 µM Diltiazem, incubation time 3h, incubation temperature 4 °C; settings: male, Wistar, rat, rat whole brain preparation, probe [3H] Diltiazem, 2 nM; compound concentration 10 uM; target entry is the homologue from another species
Sus scrofa = organism: Sus scrofa; assay: Inhibition of ATPase, Na+/K+, Heart at compound concentration of 10.0 uM in the Eurofins-Panlabs enzyme assay (Eurofins_assay_107710); parameters: substrate with concentration; settings: Compound concentration 10.0 uM
[18] = target: GABA-A receptor; anion channel (Rattus norvegicus) (UniProt O09028+P15431+P18506+P18508+P19969+P20236+P23574+P23576+P28471+P28473+P30191+P62813+P63079+P63138+Q91ZM7+Q9ES14); settings: Compound concentration 10.0 uM
[19] = target: Glutamate receptor 2 (Homo sapiens) (UniProt P42262); settings: Rattus norvegicus; Compound concentration 10.0 uM
[20] = target: Sodium-dependent dopamine transporter (Homo sapiens) (UniProt Q01959); settings: Compound concentration 10.0 uM
Chain of Sodium-dependent dopamine transporter (Homo sapiens) (Q01959 whole entry): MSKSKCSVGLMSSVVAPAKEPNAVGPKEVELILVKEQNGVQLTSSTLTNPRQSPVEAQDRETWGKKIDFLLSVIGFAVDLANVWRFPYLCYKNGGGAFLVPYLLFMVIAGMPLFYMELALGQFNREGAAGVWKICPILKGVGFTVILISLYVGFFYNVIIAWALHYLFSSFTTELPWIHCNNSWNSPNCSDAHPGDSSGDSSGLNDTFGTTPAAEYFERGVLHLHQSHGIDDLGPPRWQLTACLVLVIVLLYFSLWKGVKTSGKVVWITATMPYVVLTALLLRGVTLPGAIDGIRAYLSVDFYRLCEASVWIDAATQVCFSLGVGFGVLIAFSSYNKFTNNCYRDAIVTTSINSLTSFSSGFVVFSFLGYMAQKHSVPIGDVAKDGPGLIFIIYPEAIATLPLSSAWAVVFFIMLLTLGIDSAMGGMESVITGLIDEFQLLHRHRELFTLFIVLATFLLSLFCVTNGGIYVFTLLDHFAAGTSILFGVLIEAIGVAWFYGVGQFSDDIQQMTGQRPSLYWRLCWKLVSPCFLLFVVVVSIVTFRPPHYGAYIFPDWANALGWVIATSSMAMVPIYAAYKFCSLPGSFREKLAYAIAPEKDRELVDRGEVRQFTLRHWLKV

Chain of Neutrophil elastase (Homo sapiens) (P08246 whole entry): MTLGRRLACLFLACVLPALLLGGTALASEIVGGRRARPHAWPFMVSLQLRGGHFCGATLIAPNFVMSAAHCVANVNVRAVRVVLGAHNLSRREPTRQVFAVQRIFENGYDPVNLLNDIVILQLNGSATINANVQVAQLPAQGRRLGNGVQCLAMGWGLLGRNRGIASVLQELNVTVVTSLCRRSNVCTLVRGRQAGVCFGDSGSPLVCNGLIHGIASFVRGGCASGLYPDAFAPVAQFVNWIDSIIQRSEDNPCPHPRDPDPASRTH
Chain of CYP2D6 (P10635 whole entry): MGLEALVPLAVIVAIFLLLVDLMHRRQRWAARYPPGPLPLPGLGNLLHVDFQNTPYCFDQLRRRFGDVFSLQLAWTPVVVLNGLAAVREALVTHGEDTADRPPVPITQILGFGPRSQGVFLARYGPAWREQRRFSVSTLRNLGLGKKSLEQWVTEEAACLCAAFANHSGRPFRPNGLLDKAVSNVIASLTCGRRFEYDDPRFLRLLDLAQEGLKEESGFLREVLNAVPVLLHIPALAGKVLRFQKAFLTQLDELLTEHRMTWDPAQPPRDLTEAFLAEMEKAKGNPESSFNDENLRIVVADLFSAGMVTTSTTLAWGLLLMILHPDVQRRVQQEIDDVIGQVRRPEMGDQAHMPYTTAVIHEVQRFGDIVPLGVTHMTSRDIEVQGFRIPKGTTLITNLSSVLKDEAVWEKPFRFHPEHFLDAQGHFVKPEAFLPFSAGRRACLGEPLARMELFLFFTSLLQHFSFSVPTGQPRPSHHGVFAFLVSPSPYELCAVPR
Chain of Cholecystokinin receptor type A (Homo sapiens) (P32238 whole entry): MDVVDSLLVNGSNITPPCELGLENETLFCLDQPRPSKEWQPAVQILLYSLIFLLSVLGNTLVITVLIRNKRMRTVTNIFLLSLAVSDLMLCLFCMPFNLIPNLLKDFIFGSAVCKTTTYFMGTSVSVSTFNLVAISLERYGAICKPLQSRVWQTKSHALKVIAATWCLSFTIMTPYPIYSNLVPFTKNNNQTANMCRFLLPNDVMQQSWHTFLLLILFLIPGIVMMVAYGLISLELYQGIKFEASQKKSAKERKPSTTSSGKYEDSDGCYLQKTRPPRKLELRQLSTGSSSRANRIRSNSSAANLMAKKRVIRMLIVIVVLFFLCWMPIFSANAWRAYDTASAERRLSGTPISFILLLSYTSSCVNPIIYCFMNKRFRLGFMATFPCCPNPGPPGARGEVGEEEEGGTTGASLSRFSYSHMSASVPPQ
Chain of D(2) dopamine receptor (Homo sapiens) (P14416 whole entry): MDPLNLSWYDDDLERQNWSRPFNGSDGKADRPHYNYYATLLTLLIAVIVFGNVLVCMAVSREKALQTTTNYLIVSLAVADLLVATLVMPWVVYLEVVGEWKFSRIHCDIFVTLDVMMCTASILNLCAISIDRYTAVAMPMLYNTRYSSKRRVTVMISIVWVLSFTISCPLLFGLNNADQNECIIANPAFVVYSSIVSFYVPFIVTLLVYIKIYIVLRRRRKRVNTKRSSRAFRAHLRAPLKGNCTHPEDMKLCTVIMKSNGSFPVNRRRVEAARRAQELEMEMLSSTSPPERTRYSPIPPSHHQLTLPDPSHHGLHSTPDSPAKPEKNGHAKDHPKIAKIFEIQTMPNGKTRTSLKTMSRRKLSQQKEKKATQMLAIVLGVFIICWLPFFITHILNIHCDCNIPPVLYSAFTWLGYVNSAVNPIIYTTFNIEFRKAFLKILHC
Chain of Thromboxane-A synthase (Homo sapiens) (P24557 whole entry): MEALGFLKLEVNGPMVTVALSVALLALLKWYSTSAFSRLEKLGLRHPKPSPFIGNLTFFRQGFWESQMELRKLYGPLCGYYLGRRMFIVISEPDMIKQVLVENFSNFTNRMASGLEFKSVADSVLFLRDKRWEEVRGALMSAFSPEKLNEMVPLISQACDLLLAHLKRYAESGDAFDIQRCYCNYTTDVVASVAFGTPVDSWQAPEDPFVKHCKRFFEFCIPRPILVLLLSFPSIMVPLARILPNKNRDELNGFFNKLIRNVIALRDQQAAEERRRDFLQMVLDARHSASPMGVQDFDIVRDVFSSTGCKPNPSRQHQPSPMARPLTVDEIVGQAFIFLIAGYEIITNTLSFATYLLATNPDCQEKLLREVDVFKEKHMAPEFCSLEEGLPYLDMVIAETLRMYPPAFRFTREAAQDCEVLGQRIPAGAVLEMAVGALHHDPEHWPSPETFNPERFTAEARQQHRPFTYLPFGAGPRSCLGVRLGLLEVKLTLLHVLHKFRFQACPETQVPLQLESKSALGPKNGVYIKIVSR
Chain of Neuropeptide Y receptor type 2 (Homo sapiens) (P49146 whole entry): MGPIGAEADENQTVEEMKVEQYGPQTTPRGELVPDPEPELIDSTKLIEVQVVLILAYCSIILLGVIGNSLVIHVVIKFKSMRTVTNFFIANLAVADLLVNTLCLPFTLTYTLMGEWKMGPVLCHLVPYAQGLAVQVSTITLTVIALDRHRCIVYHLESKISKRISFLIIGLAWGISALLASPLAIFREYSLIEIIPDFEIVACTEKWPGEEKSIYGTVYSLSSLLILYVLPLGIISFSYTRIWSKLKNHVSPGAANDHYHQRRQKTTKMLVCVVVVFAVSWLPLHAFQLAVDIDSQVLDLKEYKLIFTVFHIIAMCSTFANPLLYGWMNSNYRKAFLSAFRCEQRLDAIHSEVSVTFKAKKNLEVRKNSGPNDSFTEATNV
Chain of D(1A) dopamine receptor (P21728 whole entry): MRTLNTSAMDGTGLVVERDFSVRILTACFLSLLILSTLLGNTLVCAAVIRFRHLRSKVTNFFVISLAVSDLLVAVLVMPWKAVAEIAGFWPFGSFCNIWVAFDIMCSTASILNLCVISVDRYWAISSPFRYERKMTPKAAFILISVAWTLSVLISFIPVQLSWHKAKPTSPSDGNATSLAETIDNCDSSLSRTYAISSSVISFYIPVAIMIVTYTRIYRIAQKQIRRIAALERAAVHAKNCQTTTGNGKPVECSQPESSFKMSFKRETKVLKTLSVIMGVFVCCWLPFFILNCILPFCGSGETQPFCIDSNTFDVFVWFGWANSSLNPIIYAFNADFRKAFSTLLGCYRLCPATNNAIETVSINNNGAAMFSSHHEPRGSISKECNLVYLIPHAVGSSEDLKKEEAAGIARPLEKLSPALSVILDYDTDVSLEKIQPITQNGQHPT
Chain of Epidermal growth factor receptor (Homo sapiens) (P00533 whole entry): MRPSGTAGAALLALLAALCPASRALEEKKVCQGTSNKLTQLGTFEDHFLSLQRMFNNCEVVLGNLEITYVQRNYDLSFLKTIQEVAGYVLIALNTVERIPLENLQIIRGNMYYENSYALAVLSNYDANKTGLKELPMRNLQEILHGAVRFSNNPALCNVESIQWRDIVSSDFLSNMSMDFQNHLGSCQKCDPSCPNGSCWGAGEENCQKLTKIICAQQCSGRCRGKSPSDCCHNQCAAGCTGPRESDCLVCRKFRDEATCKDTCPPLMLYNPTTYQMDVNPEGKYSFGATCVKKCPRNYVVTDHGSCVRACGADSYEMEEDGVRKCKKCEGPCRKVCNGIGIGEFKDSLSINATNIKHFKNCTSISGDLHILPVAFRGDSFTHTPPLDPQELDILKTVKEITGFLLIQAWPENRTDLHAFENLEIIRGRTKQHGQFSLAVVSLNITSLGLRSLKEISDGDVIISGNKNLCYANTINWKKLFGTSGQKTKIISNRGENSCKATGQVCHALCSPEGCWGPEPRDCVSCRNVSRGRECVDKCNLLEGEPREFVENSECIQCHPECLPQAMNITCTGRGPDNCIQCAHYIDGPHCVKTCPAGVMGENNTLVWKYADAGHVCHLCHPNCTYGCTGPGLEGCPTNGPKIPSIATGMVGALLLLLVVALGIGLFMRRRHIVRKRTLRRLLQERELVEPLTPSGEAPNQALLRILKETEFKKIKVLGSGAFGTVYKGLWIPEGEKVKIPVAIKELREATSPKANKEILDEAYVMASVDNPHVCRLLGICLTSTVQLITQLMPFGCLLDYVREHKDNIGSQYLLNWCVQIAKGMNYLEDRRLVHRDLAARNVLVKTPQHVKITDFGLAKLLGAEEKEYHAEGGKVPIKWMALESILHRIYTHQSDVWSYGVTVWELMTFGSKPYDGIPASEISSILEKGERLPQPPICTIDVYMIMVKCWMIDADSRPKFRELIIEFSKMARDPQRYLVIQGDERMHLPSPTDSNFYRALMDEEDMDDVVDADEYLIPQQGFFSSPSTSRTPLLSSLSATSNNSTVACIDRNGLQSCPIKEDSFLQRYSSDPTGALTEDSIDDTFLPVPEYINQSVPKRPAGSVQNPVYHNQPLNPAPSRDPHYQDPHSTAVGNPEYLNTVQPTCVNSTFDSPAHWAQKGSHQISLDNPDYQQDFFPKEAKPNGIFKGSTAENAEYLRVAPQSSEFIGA

O=C(NCc1ncc(C(F)(F)F)cc1Cl)c1ccc2c(c1)C1(CCS(=O)(=O)CC1)[C@H](C1CC1)N2S(=O)(=O)c1ccc(F)cc1 [BAY-784]
inhibition at 10 µM (CYP2D6): 4% (not active) | inhibition [1]: 9% | inhibition [2]: 1% | inhibition [3]: -8% | inhibition at 90 min, 10 µM [4]: 26% (not active) | inhibition [5]: 22% | inhibition [6]: 0% | inhibition [7]: 16% | inhibition [8]: 0% | inhibition (D(1A) dopamine receptor): 6% | inhibition [9]: 26% | inhibition at 10 µM (CYP3A4): 38% (not active) | inhibition [10]: 9% | inhibition [11]: -3% | inhibition [12]: 2% | inhibition [13]: 4% | inhibition [14]: 5% | inhibition [15]: -1% | inhibition [16]: 4% | inhibition at 3 h, 10 µM [17]: 29% (not active) | inhibition (Sus scrofa): 0% | inhibition [18]: 34% | inhibition [19]: 2%

O=C(NCc1ncc(C(F)(F)F)cc1Cl)c1ccc2c(c1)C1(CCS(=O)(=O)CC1)[C@@H](C1CC1)N2S(=O)(=O)c1ccc(F)cc1 [BAY-786]
inhibition [20]: -4.64%
